# Reference: patent US20050158323A1, “Methods of killing tumor cells by targeting internal antigens exposed on apoptotic tumor cells” (Vaccinex, Inc., priority 2003, published 2005)
# Read-outs that look alike come from different tables or passages of the source.
# T1: recombinant human C35 (rhC35) (Homo sapiens, UniProt Q9BRT3)
# T1 construct: made in house; host or cells: E. coli
# T1 sequence (Q9BRT3 1-115): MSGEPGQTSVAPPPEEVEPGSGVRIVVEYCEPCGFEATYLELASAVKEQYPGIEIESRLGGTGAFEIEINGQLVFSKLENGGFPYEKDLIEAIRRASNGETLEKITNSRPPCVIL
# T2: C35 protein (Homo sapiens, UniProt Q9BRT3)
# T2 sequence (Q9BRT3 1-115): T1 sequence (Q9BRT3 1-115)
# T3: recombinant human C35 (rhC35) (Homo sapiens, UniProt Q9BRT3)
# T3 construct: made in house; host or cells: E. coli
# T3 sequence (Q9BRT3 1-104): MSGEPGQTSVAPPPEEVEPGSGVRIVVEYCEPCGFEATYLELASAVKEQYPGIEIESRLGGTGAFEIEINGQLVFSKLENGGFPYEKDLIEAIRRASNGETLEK
# T4: recombinant human C35 (rhC35) (Homo sapiens, UniProt Q9BRT3)
# T4 construct: made in house; host or cells: E. coli
# T4 sequence (Q9BRT3 1-52): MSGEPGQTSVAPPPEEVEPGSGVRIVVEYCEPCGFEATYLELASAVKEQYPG
# B1: 1B3: mouse monoclonal anti-C35 antibody from hybridoma 1B3, gamma1 isotype, kappa light chain; VH SEQ ID NO:8, VK SEQ ID NO:10 (antibody, listed as Mus sp., V domains shown)
# VH: EVQLQESGPSLVKPSQTLSLTCSVTGDSITSGYWNWIRKFPGNKLEYVGYISYSGGTYYNPSLKSRISITRDTSKNHYYLQLNSVTTEDTATYYCARGAYYGGAFFPYFDVWGAGTTVTVSS
# VL: DVQITQSPSFLAASPGETITINCRASKYISKHLVWYQEKPGETKKLLIYSGSTLQSGLPSRFSGSGSGTDFTLTISSLEPEDFAMYYCQQHNEYPLTFGAGTKLELK
# B2: MAb11 (1B3): 1B3 anti-C35 immunoglobulin variable regions linked to human constant regions (antibody, V domains shown)
# VH: B1 VH
# VL: B1 VL
# B3: C35 protein: control C35 protein coated at 2 μg/ml, positive control of the peptide ELISA (protein, UniProt Q9BRT3 2-112, looked up)
# Migration and invasion …: SGEPGQTSVAPPPEEVEPGSGVRIVVEYCEPCGFEATYLELASAVKEQYPGIEIESRLGGTGAFEIEINGQLVFSKLENGGFPYEKDLIEAIRRASNGETLEKITNSRPPC
# How the values were obtained:
# [1] = system: Colau.C35 tumor cells; assay: Combination radioimmunotherapy and chemotherapy, second experiment (FIG. 6, Table 5); format: in vivo, Swiss nude mice
# Procedure: Swiss nude mice were grafted with Colau.C35 cells on day 0. Chemotherapy: Cisplatin administered at 2 mg/kg i.v. on days 15 & 18; 5FU/LV administered at 180/120 mg/kg i.v. on day 18. Radioimmunotherapy: 300 μCi (˜50 μg) of ^131I-labeled murine 1B3 anti-C35 IgG was administered on day 21.
# In a second experiment, the effect of combination radioimmunotherapy with ^131I labeled 1B3 anti-C35 monoclonal antibody and chemotherapy with cisplatin at 2 mg/kg on day 15 and 18 was tested in Swiss nude mice grafted with Colau.C35 tumor cells. Cispaltin was administered on days 15 and 18 following tumor graft. 300 μCi of ^131I-labeled 1B3 anti-C35 monoclonal antibody was administered on day 21. Tumor growth was followed for up to 10 weeks.
# In the same experiment, separate groups of Swiss nude mice grafted with Colau.C35 tumor cells were treated with either 5-FluoroUracil (5FU) at 180 mg/kg, together with Leucovorin (LV) at 120 mg/kg or this same chemotherapy regimen administered on day 18 followed by 300 μCi of ^131I-labeled 1B3 anti-C35 monoclonal antibody administered on day 21.
# [2] = nude mice, cited from earlier work
# [3] = system: 21MT1 tumor cells; assay: Taxol induced apoptosis and C35 exposure, annexin V/PI flow cytometry; format: cell-based, human; details: 0.5 uM, 24 hours
# Procedure: 24 hours following treatment with 0.5 uM Taxol™, 21MT1 tumor cells were stained with annexin V-FITC, propidium iodide, and with either 100 ng anti-C35 antibody 1F2 (dark line) or isotype control (grey fill) antibody. Both antibodies were directly conjugated to Alexa-647. Histograms were gated on the cells undergoing apoptosis (annexinV positive/PI negative).
# Antibodies were pre-incubated with PAB buffer (FIG. 3A), 100-fold molar excess recombinant C35 protein (FIG. 3B), or 100-fold molar excess β-galactosidase protein (FIG. 3C).
# [4] = system: rabbit anti-human C35 polyclonal antibody; assay: ELISA of rabbit C35 immune serum on C35 derived 15 amino acid peptides; format: binding
# Description: Rabbit polyclonal antibodies were raised to recombinant C35 employing standard immunization methods well known in the art. Overlapping peptides 15 amino acids in length were synthesized corresponding to the 115 amino acid long C35 protein sequence beginning at each amino acid residue from 1 to 101. Peptides are named based on the C35 position of the amino terminus residue in each 15 amino acid peptide. In each peptide that overlapped the cysteine residues at positions 30, 33 and 112 of the natural C35 sequence, alanine was substituted for cysteine to avoid formation of disulfide crosslinked peptides.
# Wells of 96 well Maxisorp microtiter plates were coated with either 2 μg C35 protein, or 14 μg or 40 μg of the indicated 15 amino acid peptide derived from the C35 protein sequence and binding of antibodies in the rabbit C35 immune serum was determined as described in detail below. Data in Table 11, below, is shown for the positive and negative controls and for those C35 derived peptides for which positive binding was detected. Variations in the level of peptide binding can be due to either differences in the concentration of specific antibody species, differences in antibody affinity or a combination thereof.
# C35 peptide 15-mers in 100% DMSO, 10 mg/ml, were aliquotted into 1.5 ml tubes, 40 μg/tube, under sterile conditions, then speed vacuumed to remove DMSO. The peptides were resuspended in PBS, pH7.2, 1 ml/tube, mixed well and spun down. Each peptide concentration (“peptide solution”) was 40 μg/ml. Peptide solution should be stored at −20° C. until use. Once thawed, it should be kept at 4° C. for no more than 2 weeks.
# For 14 μg/ml peptide coated plates, 65 μl PBS, pH7.2 per well was added, followed by 35 μl peptide solution per well (for a total volume of 100 μl/well), and mixed well. For 40 μg/ml peptide coated plates, 100 μl of peptide solution was placed directly on the plate, 100 μl/well. Control C35 protein was diluted into PBS, pH7.2 to 2 μg/ml and added to the plates, 100 μl/well. Coated plates were incubated at room temperature for 2 hours, then 4° C. overnight.
# Each plate was washed 3 times on a plate washer. […] The secondary antibody, HRP (horseradish peroxidase conjugated goat anti-rabbit Fc polyclonal antibody from Zymed, was diluted at a 1:20,000 dilution into assay diluent and added to the plates, 100 μl/well. The plates were incubated at room temperature for 2 hours. Plates were washed 7 times on a plate washer. Substrate was added as per the kit manufacturers instructions and incubated at room temperature in the dark for 15 minutes. The reaction was stopped by adding 2N H2SO4, 100 μl/well. Absorbance at 450-570 nm was read immediately.
# [5] = biological target: T1, recombinant human C35 (rhC35); assay: Epitope localization by Western blot of Lys-C digested rhC35; format: binding; details: native C35 sequence numbering; 1 μg/ml antibody
# Description: (§1) To localize the epitope specificity of 1B3 and 1F2 antibodies, recombinant human C35 (rhC35) synthesized with a 6× His tag in E. coli was digested with Lys-C endoproteinase. This enzyme cuts after lysine (K) residues in the protein sequence. […] The full sequence of rhC35, including the amino terminal 6× His tag addition is shown. Amino acid positions are numbered relative to the amino terminal methionine (M) of the native human sequence. Note that digestion at the first and third lysine followed by negatively charged residues is inefficient and some longer combination fragments may be generated. Lys-C endoproteinase was added to purified rhC35 at a […] weight ratio and incubated for 18 hours at 37° C. in 25 mM Tris, pH 8.0. The digest was ethanol precipitated and resolubilized in reducing Tricine sample buffer. After heating 5 minutes at 100° C., samples were separated by electrophoresis on a 16% Tricine gel (Invitrogen). Peptides were transferred to PVDF membranes and the blots depicted in FIG. 10 were either stained with Coomassie blue (lanes 1-3 of both left and right panels) to detect all peptides or processed with one of the following: 1 μg/ml of the murine 1F2 anti-C35 antibody followed by alkaline phosphatase conjugated goat anti-mouse antibody (lane 4 of left panel); 1 μg/ml of the 1B3 anti-C35 immunoglobulin variable regions linked to human constant regions (MAb11) followed by alkaline phosphatase conjugated goat anti-human antibody (lane 5 of left panel); or anti-6× His tag mouse antibody (Amersham) followed by alkaline phosphatase conjugated goat anti-mouse antibody (lane 4 and 5 of right panel). BCIP/NBT substrate was added and developed to detect the secondary reagents. Molecular weight markers are indicated in the flanking lanes of both panels.
# (§2) In FIG. 10, the indicated band A migrates at the position of undigested rhC35. Note that band B stains with 1F2 but not MAb11 (1B3) anti-C35 antibody while band C stains with neither 1F2 nor MAb11 (1B3) antibody. Since bands B and C both do stain with anti-6× His tag antibody to the 6× His tag at the amino terminus of rhC35, it may be concluded that both fragments lack C-terminal peptide fragments. […] This epitope is not required for staining with 1F2.
# [6] = biological target: T2, C35 protein; assay: ELISA and Western Blot of hybridoma antibodies; format: binding; details: ELISA and Western Blot assays
# Procedure: (§3) Hybridoma cell lines IF2.4.1 and 1B3.6.1, specific for C35 polypeptides, were prepared using hybridoma technology. (Kohler et al., Nature 256:495 (1975); Kohler et al., Eur. J. Immunol. 6:511 (1976); Kohler et al., Eur. J. Immunol. 6:292 (1976); Hammerling et al., in: Monoclonal Antibodies and T-Cell Hybridomas, Elsevier, N.Y., pp. 571-681 (1981)). Briefly, hybridoma cell lines were generated using standard PEG fusion to the non-secreting myeloma cell line NS-1 (P3/NS1/1-AG4-1, ATCC #TIB-18) of splenocytes from BALB/c mice immunized with syngeneic BCA34 fibroblast tumor cells transduced to overexpress C35. Following PEG fusion to NS-1, the hybridomas were grown in methylcellulose semi-solid media. Approximately 2 weeks later, hybridoma colonies were isolated into 96 well plates and individual supernatants were tested for reactivity with C35 by ELISA, Western blot, and immunohistochemistry. Positive hybridomas colonies were subcloned and screened for reactivity twice to ensure clonality. Antibodies were isolated from hybridoma supernatants by protein G affinity purification using standard methods. […] In addition, we have developed intracellular staining flow cytometry assays for quantitative analysis using antibodies from hybridoma cell line 1F2 conjugated to Alexa-647 flourochrome. Each of these antibodies is distinct, yet both are specific for C35 protein. […]
# [7] = biological target: T2, C35 protein; assay: Competitive binding ELISA; details: 1F2 versus 1B3
# Procedure: as §3
# [8] = biological target: T3, recombinant human C35 (rhC35); assay: Epitope localization by Western blot of Lys-C digested rhC35; format: binding; details: Western blot, 1 μg/ml antibody
# Description: as §1, §2
# [9] = biological target: T4, recombinant human C35 (rhC35); assay: as above; format: binding; details: Western blot, 1 μg/ml antibody; remark: listed apart in the source
# Description: as §1, §2
# [10] = non-toxic dose at indicated schedule
# [11] = literature values (footnotes 3-5)
# [12] = 14 μg/ml peptide coated plates, 100 ng/ml primary antibody (C35 protein control coated at 2 μg/ml)
# [13] = 40 μg/ml peptide coated plates, 1 μg/ml primary antibody (C35 protein control coated at 2 μg/ml)
molecule,measurement,setting,value
"N.N.[Cl][Pt][Cl] [Cisplatin alone, cisplatin]",inhibition of Colau.C35 tumor growth,"[1]; cisplatin 2 mg/kg days 15 and 18, 5FU/LV 180/120 mg/kg day 18, 300 μCi ^131I-1B3 day 21",some inhibition
same,LCK = Log Cell Kill = TDD/3.32,[1]; same regimens,0.20
same,T−C = difference in time for treated and control tumors to reach a given volume,"[1]; tumor volume 1200 mm^3, cisplatin 2 mg/kg days 15 and 18, 5FU/LV 180/120 mg/kg day 18, 300 μCi ^131I-1B3 day 21",5 days
same,TDD = Tumor doubling delay = T−C/tumor volume doubling time of untreated,"[1]; tumor volume 1200 mm^3, same regimens",0.66
O=P1(N(CCCl)CCCl)NCCCO1 (stereo not shown) [Cyclophosphamide],Maximum Tolerated Dose,[2]; [10],No toxicity^2
Nc1ccn([C@@H]2O[C@H](CO)[C@@H](O)C2(F)F)c(=O)n1 [Gemcitabine],Maximum Tolerated Dose,[2]; [10],No toxicity^5
CCc1c2c(nc3ccc(OC(=O)N4CCC(N5CCCCC5)CC4)cc13)-c1cc3c(c(=O)n1C2)COC(=O)[C@]3(O)CC [Irinotecan],Maximum Tolerated Dose,[2]; [11],15 mg/kg
"CC(=O)O[C@H]1C(=O)[C@@]2(C)[C@H]([C@H](OC(=O)c3ccccc3)[C@]3(O)C[C@H](OC(=O)[C@H](O)[C@@H](NC(=O)c4ccccc4)c4ccccc4)C(C)=C1C3(C)C)[C@]1(OC(C)=O)CO[C@@H]1C[C@@H]2O [Taxol, paclitaxel]",induction of apoptosis with exposure of C35 on the cell surface,[3],induces apoptosis
same,Maximum Tolerated Dose,[2]; [10],No toxicity^2
CCC1=C[C@@H]2CN(C1)Cc1c([nH]c3ccccc13)[C@@](C(=O)OC)(c1cc3c(cc1OC)N(C)[C@H]1[C@@](O)(C(=O)OC)[C@H](OC(C)=O)[C@]4(CC)C=CCN5CC[C@]31[C@@H]54)C2 [Vinorelbine],Maximum Tolerated Dose,[2]; [11],20 mg/kg
FPYEKDLLEAIRRAS [Peptide P83],Absorbance @ 450-570 nm,[4]; [12],0.025
same,Absorbance @ 450-570 nm,[4]; [13],0.19
B1,epitope specificity,[5],residues 105-115
same,binding to recombinant C35 protein,[6],specifically bind recombinant C35 protein
same,epitope comparison by competition,[7],bind different epitopes of the C35 protein
B2,staining of approximately 15 kDa band B (lacks C35 residues 105-115),[8],not
same,staining of approximately 8 kDa band C (in addition lacks residues 53-104),[9],neither
B3,Absorbance @ 450-570 nm,[4]; [12],3.765
same,Absorbance @ 450-570 nm,[4]; [13],3.5225
